Test results reported in paper PMC4279406, “Simultaneous targeting of PI3Kδ and a PI3Kδ-dependent MEK1/2-Erk1/2 pathway for therapy in pediatric B-cell acute lymphoblastic leukemia” (Oncotarget, 2014).

How the values were obtained:
PI3Kδ = PI3Kδ (Homo sapiens, UniProt O00329); assay: Kinase Profiler lipid kinase IC50; assay type: biochemical; parameters: purchased Millipore (Kinase Profiler Services, United Kingdom); conditions: ATP at Km of the isoform; 10-point half-log dilution from 1000 nM
Protocol: Figure 1 Structure of X-370 and its inhibitory activity against lipid kinases (A) Chemical structure of X-370. (B) X-370 docked to the crystal structure of PI3Kδ. The model was generated based on the co-crystal structure of PI3Kδ and ZSTK474 (PDB ID: 2WXL). (C) IC50 of X-370 against PI3Kδ increased along with ATP concentration. […] Data was obtained from Kinase Profiler Services (Millipore, United Kingdom). Briefly, X-370 was solved in DMSO at a concentration of 10 mM, 10-point kinase inhibitory activity was measured over concentrations in a half-log dilution series started at 1000 nM with ATP at a concentration consistent with Km of each isoform of class I PI3K and IC50s were calculated. Relative kinase activity in the presence of 10 μM X-370 compared to DMSO control was measured for the rest of lipid kinases. […]
In vitro kinase profile assays were analyzed by the Kinase Profiler Service (Millipore, United Kingdom) following its guidelines. […] The PI3K kinase activity was determined in the increasing concentration of ATP and X-370 with PI3-Kinase HTRF™ Assay kit (Millipore) as described previously.

[1] = system: PI3Kβ (LPA-stimulated MEF cells); assay: LPA-induced Akt phosphorylation in MEF cells; assay type: cell-based, murine; conditions: up to 0.5 μM; LPA 10 μM; 1 h pre-incubation
Protocol: In fibroblasts, signals from the insulin-like growth factor 1 (IGF-1) receptor are mediated by PI3Kα, while lysophosphatidic acid (LPA) stimulates G-protein coupled receptor (GPCR) signals via PI3Kβ[26]. After being pre-incubated with X-370, murine embryonic fibroblasts cultured in serum-free medium were stimulated with IGF-1 or LPA. […] Either PI3Kδ or PI3Kγ can be activated in THP-1 monocytes dependent on the stimulating ligand, among which macrophage colony stimulating factor (M-CSF/CSF-1) activates RTK-coupled PI3Kδ, while monocyte chemoattractant protein-1 (MCP-1) activates PI3Kγ [24]. Accordingly, THP-1 cells cultured in serum-free medium were stimulated with MCP-1 or M-CSF in the presence of X-370 and phosphorylated Akt was measured.
Cell lysates were probed with indicated antibodies. The IC50 values were calculated based on relative band intensity measured with ImageQuant™ TL (GE Healthcare Life Sciences, Piscataway, NJ) (B). Data shown are mean values from three independent experiments. (C, D, E, F) X-370 blocked stimuli-triggered PI3Kδ activation. MEF cells and THP-1 were starved in serum-free medium for 12 h or 4 h respectively and X-370 were added for an additional 1 h treatment following stimulation of IGF-1 at 100 ng/ml for MEF cells (C), LPA at 10 μM for MEF cells (D), MCP-1 at 100ng/ml for THP-1 (E) and M-CSF at 50 ng/ml for THP-1 (F). […]

[2] = system: human B cell leukemia cells; assay: Proliferation of a panel of human B cell leukemia cells (CCK-8); assay type: cell-based; conditions: 72 h, range over the cell panel, read-out: IC50s, proliferation
Protocol: Cell viability was assessed using Cell Counting Kit (CCK-8, Dojindo, Japan) following the manufacturer's protocol and OD values were measured with a Spectramax M5 plate reader (Molecular Devices, Sunnyvale, CA)[45].
Figure S3: X-370 inhibited proliferation of human B cell leukemia cells. Cells were seeded in 96 -well plate and treated with serial diluted X-370 for 72 h. cell viability was then assessed by CCK-8 reagent and inhibitory rate was calculated. […]
antiproliferative activity of X-370 against these cells. […]

Chain of PI3Kδ (O00329 whole entry, canonical isoform): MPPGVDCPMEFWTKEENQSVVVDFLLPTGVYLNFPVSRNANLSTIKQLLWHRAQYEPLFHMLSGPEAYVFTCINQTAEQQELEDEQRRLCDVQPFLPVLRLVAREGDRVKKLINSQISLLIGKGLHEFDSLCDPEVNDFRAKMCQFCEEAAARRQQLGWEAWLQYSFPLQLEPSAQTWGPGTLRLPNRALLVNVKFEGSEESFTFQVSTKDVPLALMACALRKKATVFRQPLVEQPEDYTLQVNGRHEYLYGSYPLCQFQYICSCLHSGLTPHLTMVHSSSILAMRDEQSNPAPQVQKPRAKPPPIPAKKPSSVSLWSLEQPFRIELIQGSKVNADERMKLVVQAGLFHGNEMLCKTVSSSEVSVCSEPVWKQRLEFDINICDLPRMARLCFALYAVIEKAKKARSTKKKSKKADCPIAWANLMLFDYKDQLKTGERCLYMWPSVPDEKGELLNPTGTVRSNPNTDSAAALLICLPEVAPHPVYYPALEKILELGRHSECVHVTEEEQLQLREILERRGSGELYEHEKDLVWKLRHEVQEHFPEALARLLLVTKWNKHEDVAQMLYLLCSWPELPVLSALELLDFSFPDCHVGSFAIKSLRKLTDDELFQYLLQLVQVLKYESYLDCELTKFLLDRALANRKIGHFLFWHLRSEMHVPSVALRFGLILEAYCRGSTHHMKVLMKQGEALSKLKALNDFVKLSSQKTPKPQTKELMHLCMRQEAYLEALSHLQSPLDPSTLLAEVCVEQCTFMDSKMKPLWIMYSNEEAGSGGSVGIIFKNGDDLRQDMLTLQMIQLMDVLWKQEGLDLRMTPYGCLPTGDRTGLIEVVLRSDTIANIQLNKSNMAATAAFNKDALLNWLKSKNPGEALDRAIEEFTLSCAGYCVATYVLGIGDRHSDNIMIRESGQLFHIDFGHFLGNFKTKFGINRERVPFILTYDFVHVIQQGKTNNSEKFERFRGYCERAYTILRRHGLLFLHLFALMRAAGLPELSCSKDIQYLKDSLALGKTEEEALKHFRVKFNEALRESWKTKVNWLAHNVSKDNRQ
Chain of PI3Kδ (P27986 whole entry partner, canonical isoform): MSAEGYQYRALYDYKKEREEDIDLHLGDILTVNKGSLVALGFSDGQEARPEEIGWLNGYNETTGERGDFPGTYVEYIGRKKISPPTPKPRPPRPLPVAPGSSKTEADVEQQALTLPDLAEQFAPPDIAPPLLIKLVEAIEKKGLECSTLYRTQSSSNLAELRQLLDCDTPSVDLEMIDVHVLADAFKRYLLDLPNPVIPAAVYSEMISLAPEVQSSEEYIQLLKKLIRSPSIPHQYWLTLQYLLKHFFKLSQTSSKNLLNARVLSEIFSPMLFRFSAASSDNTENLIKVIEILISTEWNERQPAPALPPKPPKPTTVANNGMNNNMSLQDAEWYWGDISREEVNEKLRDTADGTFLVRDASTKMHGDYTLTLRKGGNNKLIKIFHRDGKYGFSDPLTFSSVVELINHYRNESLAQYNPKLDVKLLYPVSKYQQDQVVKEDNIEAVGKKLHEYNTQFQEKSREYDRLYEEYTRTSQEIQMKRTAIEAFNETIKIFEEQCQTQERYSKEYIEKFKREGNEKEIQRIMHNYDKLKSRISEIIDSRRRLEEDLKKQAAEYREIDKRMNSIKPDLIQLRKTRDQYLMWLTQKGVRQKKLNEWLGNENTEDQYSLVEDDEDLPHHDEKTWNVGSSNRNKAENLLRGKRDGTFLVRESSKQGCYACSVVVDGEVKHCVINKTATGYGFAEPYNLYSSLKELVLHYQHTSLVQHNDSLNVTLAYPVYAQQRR

IC50 (PI3Kδ): 7 nM | IC50 [2]: 40 to 6300 nM
Compound: O=C(N1CCCC1)N1CCC(n2cnc3c(-n4c(C(F)F)nc5ccccc54)nc(N4CCOCC4)nc32)CC1 [X-370]
LPA-induced Akt phosphorylation [1]: partially inhibited
